From paper PMC12399242 (Acta Pharmaceutica Sinica. B, 2025)
Where two headings read alike, the source gives them in different places.

Experiments:
HIV-1 L100I = experiment: Antiviral activity against HIV-1 mutant L100I in MT-4 cells; assay type: cell-based; conditions: Human immunodeficiency virus 1, MT4, read-out: EC50 L100I
HIV-1 K103N = experiment: Antiviral activity against HIV-1 mutant K103N in MT-4 cells; assay type: cell-based; conditions: Human immunodeficiency virus 1, MT4, read-out: EC50 K103N
HIV-1 E138K = experiment: Antiviral activity against HIV-1 mutant E138K in MT-4 cells; assay type: cell-based; conditions: Human immunodeficiency virus 1, MT4, read-out: EC50 E138K
HIV-1 Y188L = experiment: Antiviral activity against HIV-1 mutant Y188L in MT-4 cells; assay type: cell-based; conditions: Human immunodeficiency virus 1, MT4, read-out: EC50 Y188L
[1] = system: HIV-1 K103N + Y181C (RES056); experiment: Antiviral activity against HIV-1 double mutant K103N + Y181C (RES056) in MT-4 cells; assay type: cell-based; conditions: Human immunodeficiency virus 1, MT4, read-out: EC50 K103N + Y181C
CYP1A2 = target: T1, CYP1A2 (Homo sapiens, UniProt P05177); experiment: CYP enzyme inhibition assay, CYP1A2; assay type: in vitro ADME; conditions: human liver microsomes
T1 construct: An incubation system of human liver microsomes (20 μL, 1.5 mg/mL); from tissue; host or cells: human liver microsomes
T1 sequence (P05177 whole entry): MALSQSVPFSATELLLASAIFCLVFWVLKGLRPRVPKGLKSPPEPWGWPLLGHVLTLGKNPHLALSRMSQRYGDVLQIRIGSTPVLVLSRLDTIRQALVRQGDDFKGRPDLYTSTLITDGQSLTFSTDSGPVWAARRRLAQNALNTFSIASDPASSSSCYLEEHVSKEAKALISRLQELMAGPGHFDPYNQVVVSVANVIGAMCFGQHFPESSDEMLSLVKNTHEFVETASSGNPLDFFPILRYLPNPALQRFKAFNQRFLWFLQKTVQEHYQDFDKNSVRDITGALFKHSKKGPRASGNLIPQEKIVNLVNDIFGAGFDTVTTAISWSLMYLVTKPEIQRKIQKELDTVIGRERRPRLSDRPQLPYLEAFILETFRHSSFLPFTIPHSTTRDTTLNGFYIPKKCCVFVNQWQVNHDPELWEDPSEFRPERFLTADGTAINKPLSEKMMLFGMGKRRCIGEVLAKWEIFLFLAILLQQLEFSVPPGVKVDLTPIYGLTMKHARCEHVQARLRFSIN
Procedure: (§1) An incubation system of human liver microsomes (20 μL, 1.5 mg/mL), 20 μL probe substrates, and 50 μL test compound in Tris (0.1 mol/L) was pre-incubated at 37 °C for 10 min, and then initiated by adding NADPH (10 μL, 10 mmol/L). […] Finally, the sample was centrifugated to obtain the supernatant for LC‒MS/MS analysis.

CYP2C9 = target: T2, CYP2C9 (Homo sapiens, UniProt P11712); experiment: CYP enzyme inhibition assay, CYP2C9; assay type: in vitro ADME; conditions: human liver microsomes
T2 construct: An incubation system of human liver microsomes (20 μL, 1.5 mg/mL); from tissue; host or cells: human liver microsomes
T2 sequence (P11712 whole entry): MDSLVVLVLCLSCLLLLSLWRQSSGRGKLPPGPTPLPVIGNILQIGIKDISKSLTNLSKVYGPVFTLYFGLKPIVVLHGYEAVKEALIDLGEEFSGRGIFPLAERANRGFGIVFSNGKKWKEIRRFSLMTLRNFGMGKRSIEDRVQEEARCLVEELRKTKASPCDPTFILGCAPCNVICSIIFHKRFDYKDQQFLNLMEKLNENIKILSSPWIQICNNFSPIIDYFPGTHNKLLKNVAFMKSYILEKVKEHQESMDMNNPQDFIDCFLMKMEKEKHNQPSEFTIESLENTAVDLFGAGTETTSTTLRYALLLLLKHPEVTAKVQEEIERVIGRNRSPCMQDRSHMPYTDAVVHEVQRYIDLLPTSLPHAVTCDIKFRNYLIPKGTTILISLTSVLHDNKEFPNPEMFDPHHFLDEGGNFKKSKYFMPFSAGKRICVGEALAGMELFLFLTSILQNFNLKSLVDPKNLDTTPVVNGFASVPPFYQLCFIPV
Procedure: as §1

CYP2C19 = target: T3, CYP2C19 (Homo sapiens, UniProt P33261); experiment: CYP enzyme inhibition assay, CYP2C19; assay type: in vitro ADME; conditions: human liver microsomes
T3 construct: An incubation system of human liver microsomes (20 μL, 1.5 mg/mL); from tissue; host or cells: human liver microsomes
T3 sequence (P33261 whole entry): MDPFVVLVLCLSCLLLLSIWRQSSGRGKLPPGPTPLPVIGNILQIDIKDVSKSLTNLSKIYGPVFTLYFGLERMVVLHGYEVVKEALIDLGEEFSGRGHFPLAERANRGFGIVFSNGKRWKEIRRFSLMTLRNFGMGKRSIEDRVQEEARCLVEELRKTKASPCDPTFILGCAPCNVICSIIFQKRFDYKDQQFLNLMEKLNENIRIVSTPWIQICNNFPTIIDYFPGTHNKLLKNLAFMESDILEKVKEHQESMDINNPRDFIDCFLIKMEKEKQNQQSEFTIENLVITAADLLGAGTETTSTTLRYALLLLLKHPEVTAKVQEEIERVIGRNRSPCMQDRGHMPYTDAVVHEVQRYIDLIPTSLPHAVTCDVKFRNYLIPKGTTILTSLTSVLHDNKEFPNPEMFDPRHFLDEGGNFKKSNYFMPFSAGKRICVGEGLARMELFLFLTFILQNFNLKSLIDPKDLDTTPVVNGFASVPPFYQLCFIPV
Procedure: as §1

CYP2D6 = target: T4, CYP2D6 (Homo sapiens, UniProt P10635); experiment: CYP enzyme inhibition assay, CYP2D6; assay type: in vitro ADME; conditions: human liver microsomes; read-out: IC50 CYP2D6
T4 construct: An incubation system of human liver microsomes (20 μL, 1.5 mg/mL); from tissue; host or cells: human liver microsomes
T4 sequence (P10635 whole entry): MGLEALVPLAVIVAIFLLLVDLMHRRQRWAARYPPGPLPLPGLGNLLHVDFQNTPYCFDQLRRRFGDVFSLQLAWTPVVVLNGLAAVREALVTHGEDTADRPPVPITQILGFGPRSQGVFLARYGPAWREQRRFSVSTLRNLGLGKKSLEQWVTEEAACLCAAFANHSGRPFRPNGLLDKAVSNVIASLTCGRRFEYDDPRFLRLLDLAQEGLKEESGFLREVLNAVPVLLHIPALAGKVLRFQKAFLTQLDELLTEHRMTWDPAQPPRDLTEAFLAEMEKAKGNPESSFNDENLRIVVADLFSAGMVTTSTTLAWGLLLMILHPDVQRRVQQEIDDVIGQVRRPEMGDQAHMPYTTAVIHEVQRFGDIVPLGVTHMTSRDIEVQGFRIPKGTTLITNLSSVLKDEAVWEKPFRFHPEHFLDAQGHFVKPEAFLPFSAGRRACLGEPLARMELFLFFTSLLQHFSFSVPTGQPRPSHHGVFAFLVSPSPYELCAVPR
Procedure: (§2) An incubation system of human liver microsomes (20 μL, 1.5 mg/mL), 20 μL probe substrates, and 50 μL test compound in Tris (0.1 mol/L) was pre-incubated at 37 °C for 10 min, and then initiated by adding NADPH (10 μL, 10 mmol/L). The system was incubated for another 15 min and subsequently terminated by 100 μL MeCN containing internal standard (propranolol, nadolol). Finally, the sample was centrifugated to obtain the supernatant for LC‒MS/MS analysis.

CYP3A4-T = target: T5, CYP3A4-T (Homo sapiens, UniProt P08684); experiment: CYP enzyme inhibition assay, CYP3A4-T; assay type: in vitro ADME; conditions: human liver microsomes
T5 construct: An incubation system of human liver microsomes (20 μL, 1.5 mg/mL); from tissue; host or cells: human liver microsomes
T5 sequence (P08684 whole entry): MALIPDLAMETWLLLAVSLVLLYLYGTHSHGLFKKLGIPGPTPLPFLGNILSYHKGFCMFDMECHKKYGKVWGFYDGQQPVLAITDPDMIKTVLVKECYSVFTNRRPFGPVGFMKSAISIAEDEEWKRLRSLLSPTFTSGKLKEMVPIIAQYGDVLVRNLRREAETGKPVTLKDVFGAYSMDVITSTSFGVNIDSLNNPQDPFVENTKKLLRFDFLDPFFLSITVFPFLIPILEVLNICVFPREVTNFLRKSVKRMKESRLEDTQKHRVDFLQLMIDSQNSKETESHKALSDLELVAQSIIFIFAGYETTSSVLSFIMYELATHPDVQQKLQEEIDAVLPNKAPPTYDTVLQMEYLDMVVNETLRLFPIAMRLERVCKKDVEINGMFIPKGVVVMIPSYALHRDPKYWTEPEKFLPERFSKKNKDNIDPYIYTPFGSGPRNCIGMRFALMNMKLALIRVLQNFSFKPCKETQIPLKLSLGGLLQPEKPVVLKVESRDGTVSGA
Procedure: as §2

hERG channel = target: T6, hERG channel (Homo sapiens, UniProt Q12809); experiment: hERG inhibition assay (QPatch, CHO-hERG cells); assay type: cell-based; conditions: automated QPatch, n = 3
T6 construct: expressed in transfected cells; host or cells: CHO-hERG cells
T6 sequence (Q12809 whole entry): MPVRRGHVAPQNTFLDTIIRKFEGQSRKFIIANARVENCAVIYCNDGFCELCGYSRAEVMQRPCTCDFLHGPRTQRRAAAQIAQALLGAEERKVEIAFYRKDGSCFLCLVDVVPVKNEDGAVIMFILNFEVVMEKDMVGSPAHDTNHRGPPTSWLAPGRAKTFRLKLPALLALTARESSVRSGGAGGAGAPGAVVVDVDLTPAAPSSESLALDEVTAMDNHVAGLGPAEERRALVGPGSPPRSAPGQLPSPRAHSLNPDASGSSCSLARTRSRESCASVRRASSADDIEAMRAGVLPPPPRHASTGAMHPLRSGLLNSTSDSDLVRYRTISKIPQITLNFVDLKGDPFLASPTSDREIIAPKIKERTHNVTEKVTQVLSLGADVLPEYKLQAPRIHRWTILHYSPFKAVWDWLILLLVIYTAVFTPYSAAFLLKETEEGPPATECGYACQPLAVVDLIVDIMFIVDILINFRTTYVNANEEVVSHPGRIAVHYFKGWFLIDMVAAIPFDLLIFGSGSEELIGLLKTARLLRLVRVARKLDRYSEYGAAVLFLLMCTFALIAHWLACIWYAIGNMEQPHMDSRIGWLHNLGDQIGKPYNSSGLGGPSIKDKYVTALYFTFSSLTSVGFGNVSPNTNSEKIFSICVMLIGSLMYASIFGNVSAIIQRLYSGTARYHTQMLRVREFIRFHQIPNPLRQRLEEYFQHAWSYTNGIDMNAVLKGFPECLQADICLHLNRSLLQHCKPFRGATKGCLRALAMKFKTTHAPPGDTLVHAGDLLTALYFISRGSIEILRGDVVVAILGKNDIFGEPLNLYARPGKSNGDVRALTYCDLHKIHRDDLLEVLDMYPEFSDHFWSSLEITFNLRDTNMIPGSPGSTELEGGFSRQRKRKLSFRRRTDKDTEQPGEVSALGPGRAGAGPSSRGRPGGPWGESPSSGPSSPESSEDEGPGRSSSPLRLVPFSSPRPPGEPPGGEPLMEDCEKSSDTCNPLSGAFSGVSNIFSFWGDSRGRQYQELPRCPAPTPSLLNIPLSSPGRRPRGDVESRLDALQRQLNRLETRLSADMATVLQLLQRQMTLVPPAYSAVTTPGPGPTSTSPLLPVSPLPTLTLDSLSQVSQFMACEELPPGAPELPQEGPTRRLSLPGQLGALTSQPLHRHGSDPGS
Procedure: CHO-hERG cells were cultured under the condition of 37 °C and 5% CO2. The culture medium was removed when the cell density grew to 60%–80%. Then, the cells were washed (PBS, 7 mL) and digested. After completion, culture medium (7 mL) was added for neutralization and then centrifuged to obtain the cells, which were subsequently resuspended into 5 mL of culture medium for automated Qpatch assays. The electrophysiology process was recorded using the QPatch instrument. The cells were clamped at an equilibrium potential of −80 mV. Voltage stimulation was conducted every 15 s, which concludes a 5 s, +40 mV depolarizing pulse and a 5 s, −50 mV repolarizing pulse. After 2 min of recording, extracellular fluid was given and recorded for 5 min. […] Each concentration was evaluated on 3 cells (n = 3).

PK study in SD rats = assay type: in vivo; conditions: male, Sprague-Dawley, plasma, SD rat; for half-life: mean ± SD, n = 3; for MRT last: read-out: MRT0–t; for MRT inf: read-out: MRT0–∞
Procedure: All animal treatments were conducted using an approved protocol of Fudan University (2020CHEM-JS-009). A12 was dissolved in a mixture of DMSO/Solutol HS 15/normal saline (10/10/80, v/v/v). Six Sprague–Dawley rats (male, 180−220 g) were assigned into two groups (n = 3) randomly to receive i.v. (1 mg/kg) or p.o. administration (10 mg/kg) of A12. At the time points of 5, 15, 30 min, 1, 2, 4, 6, 8, 10, 12, and 24 h, blood samples were collected and centrifuged (4 °C, 4500 rpm, 10 min) to obtain plasma. Before LC‒MS/MS analysis, the plasma needs to be stored at −80 °C. Subsequently, 120 μL of MeCN containing internal standard was added to 30 μL of plasma. The mixture was shaken and centrifuged (4 °C, 10,000 rpm, 15 min) to afford the supernatant layer for LC‒MS/MS analysis. Finally, The WinNolin software was applied to calculate the pharmacokinetic parameters.

[2] = Plasma protein binding assay (equilibrium dialysis); assay type: in vitro ADME; conditions: rat plasma, dialysis 37 °C, read-out: plasma protein binding rate (%PPB) (converted)
Procedure: The DMSO solution of A12 was diluted to 100 μmol/L with MeOH:H2O (1:1) and then added to the pre-loaded plasma to obtain plasma samples with a test concentration of 1 μmol/L. Subsequently, 100 μL of control dialysis buffer (phosphate buffer + 0.002% Tween-80) and 100 μL of A12 plasma sample were transferred to the receiver and the donor side of dialysis chambers, respectively, two copies of each sample. The dialysis system was incubated in a shaker (37 °C, 6 h). Upon completion, 20 μL of samples were removed from each of the buffer and plasma chambers. After adding aliquots control plasma, PBS (0.002% Tween-80) respectively, 250 μL methanol solution with internal standard was added into each sample. The solution was mixed and centrifuged (3800 rpm, 10 min) to obtain the supernatant for LC‒MS/MS analysis.

HIV-1 mutant strains = experiment: Antiviral activity against panel of HIV-1 mutant strains (summary ranges); assay type: cell-based
[3] = system: six CYP isoenzymes (not named; range over all six); experiment: CYP inhibition, six isoenzymes (summary range); assay type: in vitro ADME; conditions: human, human liver microsomes
Procedure: as §2

WT HIV-1 RT = WT HIV-1 RT (Human immunodeficiency virus type 1 group M subtype B, UniProt P03366); experiment: Inhibition of WT HIV-1 RT polymerase activity
Procedure: The anti-HIV-1 activity of A1–A24 and B1–B22 at the cellular or enzyme level were evaluated following our previously reported method[15].

CYP3A4-M = CYP3A4-M (Homo sapiens, UniProt P08684); experiment: CYP enzyme inhibition assay, CYP3A4-M; assay type: in vitro ADME; set-up: An incubation system of human liver microsomes (20 μL, 1.5 mg/mL); from tissue; host or cells: human liver microsomes; conditions: human liver microsomes
Sequence of CYP3A4-M (P08684 whole entry): as the sequence (P08684 whole entry) above
Procedure: as §1

## Cc1cc(-c2ccc(C#N)cc2)cc(C)c1Nc1nc(Nc2ccc(C#N)cc2)ncc1F [A12, 4′-((2-((4-Cyanophenyl)amino)-5-fluoropyrimidin-4-yl)amino)-3′,5′-dimethyl-[1,1′-biphenyl]-4-carbonitrile]
HIV-1 L100I
  EC50: 3 ± 0.5 nM
HIV-1 K103N
  EC50: 1.7 ± 0.5 nM
HIV-1 E138K
  EC50: 6 ± 0.5 nM
HIV-1 Y188L
  EC50: 60 ± 9.2 nM
[1]
  EC50: 44 ± 18 nM
CYP1A2
  IC50: > 25000 nM
CYP2C9
  IC50: 6990 nM
CYP2C19
  IC50: 14500 nM
CYP2D6
  IC50: 14500 nM
CYP3A4-T
  IC50: > 25000 nM
hERG channel
  IC50: > 40000 nM
PK study in SD rats; iv, 1.0 mg/kg i.v.
  AUC(0-inf): 3060 ± 139 ng·h/mL
  AUC(0-t): 3000 ± 142 ng·h/mL
  Cmax: 2350 ± 178 ng/mL
  Tmax: 0.0833 h
  half-life: 5.53 ± 2.04 h
  MRT last: 3.25 ± 0.575 h
  MRT inf: 3.89 ± 1.03 h
PK study in SD rats; oral, 10.0 mg/kg p.o. vs 1.0 mg/kg i.v., read-out: F (oral bioavailability)
  bioavailability: 29.2 ± 6%
PK study in SD rats; po, 10.0 mg/kg p.o.
  AUC(0-inf): 8930 ± 1850 ng·h/mL
  AUC(0-t): 7340 ± 1890 ng·h/mL
  Cmax: 1390 ± 422 ng/mL
  Tmax: 1 h
  half-life: 13.6 ± 6.64 h
  MRT last: 6.18 ± 0.306 h
  MRT inf: 13.5 ± 6.49 h
[2]
  fraction unbound at 6 h, 1 μmol/L: 0.005
HIV-1 mutant strains; Human immunodeficiency virus 1, read-out: EC50 mutant strains L100I, K103N, Y181C, and E138K
  EC50: 1.7 to 7.1 nM
HIV-1 mutant strains; Human immunodeficiency virus 1, read-out: EC50 seven mutant strains
  EC50: 1.7 to 157 nM
[3]
  IC50 at 15 min: 6990 to 25000 nM
WT HIV-1 RT
  IC50: 41 ± 6.9 nM
CYP3A4-M
  IC50: > 25000 nM
